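A five-concentration, 48-hour dose response in 96-well plates underlies each endpoint, interpolated linearly between surrounding concentrations. Abbreviation: GI50, concentration required for 50% inhibition of growth. TGI marks complete inhibition of growth.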

In the first test the test system is COLO 205 colon. As to the kind of experiment: growth of human tumour cells (NCI), 48 h.
In turn, `NS(=O)(=O)c1cc2c(cc1Cl)NC(CCC(=O)O)=NS2(=O)=O` had a TGI of more than 100 µM.
The same measure, in the same setting: the value for `CC(=O)Nc1nc(C#N)[nH]c1C#N` was more than 100 µM; that for `O=C(O)/C=C(/C(=O)O)C12CCN3CC4=CCOC5CC(=O)NC1C5C4CC32` (stereo not given) was more than 100 µM.
Still for that read-out and setting: with `COc1ccc2c(C)cc(=O)oc2c1OC` the figure was more than 100 µM; with `Cc1cc(N(CCOS(C)(=O)=O)CCOS(C)(=O)=O)ccc1C=O`, 4.39 µM; with `O=c1[nH]c(=O)n(C2OC(CO)C(O)C2O)c2nc(-c3ccc(-c4ccccc4)cc3)cnc12` (stereo not given), more than 100 µM.
The compound `CCOP(=O)(OCC)C(c1ccc(F)cc1)N(C(=O)NC(F)(F)F)c1ccc(OC)cc1` (stereo not given) returned a TGI of more than 100 µM.
`Cc1cc2c3c(nc4ccccc42)C(=O)c2ccccc2-c3n1`: the TGI is more than 100 µM.
As for `O=C1c2ccccc2-c2c1c(-c1ccc(F)cc1)nc1ccc3ccccc3c21`, the TGI is more than 100 µM.
For `CO[C@H]1/C=C(/C)CCC[C@H](C)[C@H](O)[C@@H](C)C(=O)C(C)(C)[C@@H](O)CC(=O)O[C@@H]1/C(C)=C/c1csc(C)n1`, the GI50 was 0.0159 µM and the TGI stood at 0.0755 µM.
`CCOC(=O)c1ccc(NCC#CCN2CCOCC2)cc1` had a TGI of more than 100 µM.
Same read-out and setting: the value for `COc1ccc(-c2nc(SCC(=O)N/N=C/c3ccc(N(C)C)cc3)[nH]c2-c2ccc(OC)cc2)cc1` was 24.5 µM; that for `CS(=O)(=O)OCC(CCl)(CCl)CCl` was more than 100 µM.
Take `C=CCSc1nnc2cc(CN3CCCC3)c(-c3ccc(Cl)cc3)nn12`: the TGI was 34.5 µM.
Still for that read-out and setting: with `CCOC(=O)c1cn2c(nc1=O)N[C@H]1CCCC[C@@H]12` the figure was more than 100 µM; with `CN(C)c1ccc(C(=N/N=C2\C(=O)Nc3ccccc32)c2ccc(N(C)C)cc2)cc1`, 3.34 µM.
`Cc1ccc(C(=C2Sc3ccccc3S2)C(=C2Sc3ccccc3S2)c2ccc(C)s2)s1` displayed a TGI of more than 100 µM.
The same measure, in the same setting: the value for `CSC(=S)N(C)C` was more than 100 µM.
For the compound `CCN(CC)CCN(C(=Nc1ccccc1)N1CCOCC1)c1ccccc1`, the TGI is more than 100 µM.
Consider `COP(=O)(/C=C/c1cc(C(=O)OCc2ccccc2)n(S(=O)(=O)c2ccccc2)c1)OC`, for which the TGI is more than 100 µM.
Still for that read-out and setting: the value for `CCC1(CC)C(=O)NN(C(=O)c2ccccc2)C1=O` was more than 100 µM; that for `COc1ccc(NC(=O)CC(=O)N2N=C(N3c4ccccc4Sc4ccccc43)CC2c2ccccc2)cc1` (stereo not given) was more than 100 µM; that for `Cc1cc(C(=O)CCCCOc2ccc(C3=NCCO3)cc2)c(C)n1C` was more than 100 µM.
On the same count and under the same terms, the value for `COc1cc(/C=C/C(=O)CC(=O)/C=C/c2ccc(OC(=O)CCCCC3CCSS3)c(OC)c2)ccc1OC(=O)CCCCC1CCSS1` (stereo not given) was more than 100 µM.
Same read-out and setting: the value for `[O-][n+]1ccccc1Sc1nc(Sc2cccc[n+]2[O-])nc(Sc2cccc[n+]2[O-])n1` was 2.3 µM.
The compound `CN(C)C1(N(C)C)Oc2c(c(=O)n(C)c(=O)n2C)C(c2ccc(Br)cc2)C1(F)F` (stereo not given) gave a TGI of more than 100 µM.
`CSc1nsc(-c2ccccc2)[s+]1` returned a TGI of more than 100 µM.

The next test deals with UO-31 renal. As to the kind of experiment: growth of human tumour cells (NCI), 48 h.
In turn, `NS(=O)(=O)c1cc2c(cc1Cl)NC(CCC(=O)O)=NS2(=O)=O` registered a TGI of more than 100 µM.
On to `CC(=O)Nc1nc(C#N)[nH]c1C#N`, for which the TGI was more than 100 µM.
On the same count and under the same terms, with `O=C(O)/C=C(/C(=O)O)C12CCN3CC4=CCOC5CC(=O)NC1C5C4CC32` (stereo not given) the figure was more than 100 µM; with `COc1ccc2c(C)cc(=O)oc2c1OC`, more than 100 µM; with `CC1CCC(C(=O)O)(C(Br)C(=O)O)CC1` (stereo not given), more than 100 µM.
In turn, `Cc1cc(N(CCOS(C)(=O)=O)CCOS(C)(=O)=O)ccc1C=O` showed a TGI of 35.1 µM.
For `O=c1[nH]c(=O)n(C2OC(CO)C(O)C2O)c2nc(-c3ccc(-c4ccccc4)cc3)cnc12` (stereo not given), the TGI is more than 100 µM.
The same measure, in the same setting: with `CCOP(=O)(OCC)C(c1ccc(F)cc1)N(C(=O)NC(F)(F)F)c1ccc(OC)cc1` (stereo not given) the figure was more than 100 µM; with `CCOC(=O)c1c(C)nc2c3ccccc3c(C#N)c(C)n12`, more than 100 µM.
Same read-out and setting: the value for `Cc1cc2c3c(nc4ccccc42)C(=O)c2ccccc2-c3n1` was more than 100 µM.
Compound `O=C1c2ccccc2-c2c1c(-c1ccc(F)cc1)nc1ccc3ccccc3c21` registered a TGI of more than 100 µM.
With `O=C(O)CCC(=O)OC1N=C(c2ccccc2Cl)c2cc([N+](=O)[O-])ccc2NC1=O` (stereo not given), the TGI is more than 100 µM.
Turning to `CO[C@H]1/C=C(/C)CCC[C@H](C)[C@H](O)[C@@H](C)C(=O)C(C)(C)[C@@H](O)CC(=O)O[C@@H]1/C(C)=C/c1csc(C)n1`, the GI50 is 0.0334 µM and the TGI was more than 100 µM.
Take `CCOC(=O)c1ccc(NCC#CCN2CCOCC2)cc1`: the TGI was more than 100 µM.
`COc1ccc(-c2nc(SCC(=O)N/N=C/c3ccc(N(C)C)cc3)[nH]c2-c2ccc(OC)cc2)cc1` gave a TGI of more than 100 µM.
In turn, `CS(=O)(=O)OCC(CCl)(CCl)CCl` came in with a TGI of more than 100 µM.
Same read-out and setting: with `C=CCSc1nnc2cc(CN3CCCC3)c(-c3ccc(Cl)cc3)nn12` the figure was 30.4 µM; with `CCOC(=O)c1cn2c(nc1=O)N[C@H]1CCCC[C@@H]12`, more than 100 µM; with `CN(C)c1ccc(C(=N/N=C2\C(=O)Nc3ccccc32)c2ccc(N(C)C)cc2)cc1`, 30.8 µM.
Same read-out and setting: the value for `Cc1ccc(C(=C2Sc3ccccc3S2)C(=C2Sc3ccccc3S2)c2ccc(C)s2)s1` was more than 100 µM; that for `CSC(=S)N(C)C` was more than 100 µM; that for `CCN(CC)CCN(C(=Nc1ccccc1)N1CCOCC1)c1ccccc1` was more than 100 µM.
On the same count and under the same terms, the value for `COP(=O)(/C=C/c1cc(C(=O)OCc2ccccc2)n(S(=O)(=O)c2ccccc2)c1)OC` was more than 100 µM; that for `CCC1(CC)C(=O)NN(C(=O)c2ccccc2)C1=O` was more than 100 µM; that for `COc1ccc(NC(=O)CC(=O)N2N=C(N3c4ccccc4Sc4ccccc43)CC2c2ccccc2)cc1` (stereo not given) was more than 100 µM.
`Cc1cc(C(=O)CCCCOc2ccc(C3=NCCO3)cc2)c(C)n1C` returned a TGI of more than 100 µM.
On to `COc1cc(/C=C/C(=O)CC(=O)/C=C/c2ccc(OC(=O)CCCCC3CCSS3)c(OC)c2)ccc1OC(=O)CCCCC1CCSS1` (stereo not given), for which the TGI was more than 100 µM.
In the case of `[O-][n+]1ccccc1Sc1nc(Sc2cccc[n+]2[O-])nc(Sc2cccc[n+]2[O-])n1`, the TGI was determined as 3.25 µM.
Still for that read-out and setting: with `CN(C)C1(N(C)C)Oc2c(c(=O)n(C)c(=O)n2C)C(c2ccc(Br)cc2)C1(F)F` (stereo not given) the figure was more than 100 µM; with `CSc1nsc(-c2ccccc2)[s+]1`, more than 100 µM.

The next test concerns A549 NSCLC. As to the kind of experiment: growth of human tumour cells (NCI), 48 h.
For the compound `NS(=O)(=O)c1cc2c(cc1Cl)NC(CCC(=O)O)=NS2(=O)=O`, the TGI is more than 100 µM.
As for `CC(=O)Nc1nc(C#N)[nH]c1C#N`, the TGI is more than 100 µM.
`O=C(O)/C=C(/C(=O)O)C12CCN3CC4=CCOC5CC(=O)NC1C5C4CC32` (stereo not given) showed a TGI of more than 100 µM.
`COc1ccc2c(C)cc(=O)oc2c1OC`: the TGI is more than 100 µM.
Same read-out and setting: the value for `CC1CCC(C(=O)O)(C(Br)C(=O)O)CC1` (stereo not given) was more than 100 µM; that for `Cc1cc(N(CCOS(C)(=O)=O)CCOS(C)(=O)=O)ccc1C=O` was 45.7 µM.

The values above are taken from PubChem BioAssay (NCI).
